# Where two headings read alike, the source gives them in different places.
# Key:
# Assay type in all cases: cell-based
# [1] = system: Staphylococcus aureus MR (methicillin resistant); experiment: MIC, agar dilution method, Mueller-Hinton agar; conditions: 35° C., 24 hours
# Procedure: (§1) The following in vitro results were obtained based on an agar dilution method except for C. pneumoniae. The activity is presented as the minimum inhibitory concentration (MIC).
# (§2) S. aureus and M. catarrhalis were tested on Mueller-Hinton agar, using an approximate inoculum of 1×10^4 cfu/spot an incubation temperature of 35° C. for 24 hours. The MIC was defined as the lowest concentration at which no visible bacterial growth was observed.
# [2] = system: Staphylococcus aureus CR (chloramphenicol resistant); experiment: MIC, agar dilution method, Mueller-Hinton agar; conditions: 35° C., 24 hours
# Procedure: as §1, §2
# [3] = system: Moraxella catarrhalis ATCC25238; experiment: MIC, agar dilution method, Mueller-Hinton agar; conditions: 35° C., 24 hours
# Procedure: as §1, §2
# [4] = system: Staphylococcus aureus Smith; experiment: MIC, agar dilution method, Mueller-Hinton agar; conditions: 35° C., 24 hours
# Procedure: as §1, §2
# [5] = system: Streptococcus pyogenes IID692; experiment: MIC, agar dilution method, Mueller-Hinton agar with 5% defibrinated horse blood; conditions: 35° C., 5% CO2, 24 hours
# Procedure: as §1
# as §2, with “Streptococci” for “S. aureus”, “enterococci” for “M. catarrhalis”, “agar supplemented with 5% defibrinated horse blood,” for “agar,”, “C. in an atmosphere of 5% CO2” for “C.”
# [6] = system: Streptococcus pneumoniae IID553; experiment: as above; conditions: 35° C., 5% CO2, 24 hours
# Procedure: as §1
# as §2, with “Streptococci” for “S. aureus”, “enterococci” for “M. catarrhalis”, “agar supplemented with 5% defibrinated horse blood,” for “agar,”, “C. in an atmosphere of 5% CO2” for “C.”
# [7] = system: Streptococcus pneumoniae PRQR (penicillin resistant, quinolone resistant); experiment: as above; conditions: 35° C., 5% CO2, 24 hours
# Procedure: as §1
# as §2, with “Streptococci” for “S. aureus”, “enterococci” for “M. catarrhalis”, “agar supplemented with 5% defibrinated horse blood,” for “agar,”, “C. in an atmosphere of 5% CO2” for “C.”
# [8] = system: Enterococcus faecium VRQR (vancomycin resistant, quinolone resistant); experiment: as above; conditions: 35° C., 5% CO2, 24 hours
# Procedure: as §1
# as §2, with “Streptococci” for “S. aureus”, “enterococci” for “M. catarrhalis”, “agar supplemented with 5% defibrinated horse blood,” for “agar,”, “C. in an atmosphere of 5% CO2” for “C.”
structure (smiles),measurement,setting,value
"N[C@@H]1[C@H]2CN(c3c(F)cc(N4C[C@H](Cn5ccnn5)OC4=O)cc3F)C[C@@H]12 [example 2, 1-[5(R)-3-[4-[(1α,5α,6α)-6-Amino-3-azabicyclo[3.1.0]hexan-3-yl]-3,5-difluorophenyl]-2-oxooxazolidin-5-ylmethyl]-1,2,3-triazole]",MIC,[1]; read-out: MIC,0.25 µg/mL
same,MIC,[2]; read-out: MIC,2 µg/mL
same,MIC,[3]; read-out: MIC,1 µg/mL
same,MIC,[4]; read-out: MIC,0.125 µg/mL
same,MIC,[5]; read-out: MIC,0.25 µg/mL
same,MIC,[6]; read-out: MIC,0.25 µg/mL
same,MIC,[7]; read-out: MIC,0.25 µg/mL
same,MIC,[8]; read-out: MIC,1 µg/mL
"N#C[C@@H]1[C@H]2C=C(c3ccc(N4C[C@H](Cn5ccnn5)OC4=O)cc3F)C[C@@H]12 [example 8, 1-[5(R)-3-[4-[(1α,5α,6α)-6-Cyanobicyclo[3.1.0]hex-2-en-3-yl]-3-fluorophenyl]-2-oxooxazolidin-5-ylmethyl]-1,2,3-triazole]",MIC,[1],0.06 µg/mL
same,MIC,[2],1 µg/mL
same,MIC,[3],1 µg/mL
same,MIC,[4],0.125 µg/mL
same,MIC,[5],0.125 µg/mL
same,MIC,[6],0.5 µg/mL
same,MIC,[7],0.25 µg/mL
same,MIC,[8],0.25 µg/mL

# Reference: patent US20070293493A1, “OXAZOLIDINONE ANTIBIOTICS AND DERIVATIVES THEREOF” (priority 2003, published 2007)
